Data as given in ChEMBL document CHEMBL1759900, “Inhibition of nitric oxide production in lipopolysaccharide-stimulated RAW264.7 macrophage cells by lignans isolated from Euonymus alatus leaves and twigs” (Bioorg Med Chem Lett, 2011).

Tested on: RAW264.7
Assay: Inhibition of LPS-induced nitric oxide production in mouse RAW264.7 cells preincubated with compound for 1 hr before exposure to LPS measured after 24 hrs by Griess reaction method
Type: functional, cell-based

For `COc1cc([C@@H]2Oc3c(OC)cc(/C=C/CO)cc3[C@H]2CO)ccc1O` [DEHYDROCONIFERYL ALCOHOL], which IC50 is on record?
The IC50 was 8.5 µM.

With `COc1cc([C@H](O)[C@@H](CO)Oc2ccc(/C=C/CO)cc2OC)ccc1O` as the molecule, how does the IC50 read?
The IC50 was 66.4 µM.

For `COc1cc([C@H]2Oc3c(OC)cc(CCCO)cc3[C@@H]2CO)ccc1O` [DIHYDRODEHYDRODICONIFERY ALCOHOL], which IC50 is on record?
The IC50 was 9.8 µM.

`COc1cc([C@@H]2c3c(cc(OC)c(O)c3OC)C[C@@H](CO)[C@@H]2CO)cc(OC)c1O` was tested. Which IC50 did it give?
Its IC50 is 55.5 µM.

For `COc1cc([C@H]2OC[C@H]3[C@@H]2CO[C@@H]3c2cc(OC)c(O[C@H](CO)[C@@H](O)c3ccc(O)c(OC)c3)c(OC)c2)ccc1O` [HEDYOTOL C], which IC50 is on record?
The IC50 was 21.4 µM.

Which IC50 does the source give for `COC(=O)[C@@H](N)CCCNC(=N)N[N+](=O)[O-]` [L-NAME] here?
Its IC50 is 48.5 µM.

For `COc1cc([C@@H](O)[C@@H](CO)Oc2ccc(CCCO)cc2OC)ccc1O`, which IC50 is on record?
The IC50 was 63.4 µM.

Which IC50 does the source give for `COc1cc(C(O)C(CO)Oc2c(OC)cc(C3Oc4c(OC)cc(/C=C/CO)cc4C3CO)cc2OC)ccc1O` (stereo not given) here?
The IC50 was 21.3 µM.

For `COc1cc([C@H](O)[C@@H](CO)Oc2c(OC)cc(/C=C/CO)cc2OC)cc(OC)c1O`, which IC50 is on record?
The IC50 was 57.9 µM.

`COc1cc([C@H]2OC[C@H]3[C@@H]2CO[C@@H]3c2cc(OC)c(OC)c(OC)c2)cc(OC)c1O` was tested. Which IC50 did it give?
Its IC50 is 15.8 µM.

How did the IC50 turn out when `COc1cc(CC(CO)OC(CO)C(OC)c2cc(OC)c(O)c(OC)c2)ccc1O` (stereo not given) was run?
Its IC50 is 41.9 µM.

For `COc1cc(C(O)C(CO)Oc2c(OC)cc(C3OCC4C(c5cc(OC)c(OC(CO)C(O)c6ccc(O)c(OC)c6)c(OC)c5)OCC34)cc2OC)ccc1O` (stereo not given) [HEDYOTISOL B], which IC50 is on record?
The IC50 was over 100 µM.

`COc1cc(C(OC)C(CO)OC(CO)Cc2cc(OC)c(O)c(OC)c2)ccc1O` (single isomer, unassigned; (-)) was tested. Which IC50 did it give?
The IC50 was 44.3 µM.

For `COc1cc([C@H]2OC[C@H]3[C@@H]2CO[C@@H]3c2cc(OC)c(O)c(OC)c2)cc(OC)c1O` [SYRINGARESINOL], which IC50 is on record?
The IC50 was 14.8 µM.

For `COc1cc([C@H](O)[C@H](CO)Oc2ccc(CCCO)cc2OC)ccc1O`, which IC50 is on record?
The IC50 was 69.2 µM.

`COc1cc([C@H](O)[C@H](CO)Oc2c(OC)cc(/C=C/CO)cc2OC)ccc1O` was tested. Which IC50 did it give?
Its IC50 is 58.2 µM.

Which IC50 does the source give for `COc1cc([C@@H]2Oc3c(OC)cc(/C=C/CO)cc3[C@H]2CO)cc(OC)c1O` here?
The IC50 was 12.8 µM.

How did the IC50 turn out when `COc1cc([C@@H](O)[C@H](CO)Oc2ccc(/C=C/CO)cc2OC)ccc1O` was run?
The IC50 was 63.6 µM.

For `COc1cc([C@H]2Oc3c(OC)cc(/C=C/CO)cc3[C@@H]2CO)ccc1O`, which IC50 is on record?
Its IC50 is 9.3 µM.

For `COc1cc([C@H]2Oc3c(OC)cc(/C=C/CO)cc3[C@@H]2CO)cc(OC)c1O`, which IC50 is on record?
Its IC50 is 11.7 µM.
